Measurements as given in US5177082A, “Huperzines and analogs” (priority 1990, dated 1993).
Like-named read-outs stand apart in the source and are kept apart here.

Test system: Fetus of Pregnant Mice
Settings: mouse, in vivo
Text: […]. […] The latter produced various types of externally observed deformities: short tails (44/97), short and no tails (18/97), back legs reversed (13/97), open eyes (7/97), exposed brains and spina bifida (1/97), sunken noses (1/97) and cleft palates (39/40). […].

## C/C=C1\[C@H]2C=C(C)C[C@]1(N)c1ccc(=O)[nH]c1C2 [Huperzine A, (5R, 9R, 11E)-5-amino-11-ethylidene-5,6,9,10-tetrahydro-7-methyl-5,9-methanocycloocta[b]pyridin-2(1H)-one]
  number of embryo absorptions and stillborn fetuses vs control: markedly greater than those of the control group
ip
  abnormal embryos: Neither of the two methods of giving the drug resulted in abnormal embryos
ip, 0.019 mg/kg
  Body length of fetus: 2.2 ± 0.3 cm
  Body weight of fetus: 1.24 ± 0.22 g
  Number absorbed: 1.0 ± 1.7
  Number of fetuses: 8 ± 3
  number of stillbirths: 0.22 ± 0.44
ip, 0.038 mg/kg
  Body length of fetus: 2.2 ± 0.3 cm
  Body weight of fetus: 1.2 ± 0.2 g
  Number absorbed: 0.5 ± 0.8
  Number of fetuses: 8 ± 2
  number of stillbirths: 0.22 ± 0.44
ip, 0.08 mg/kg
  Body length of fetus: 2.3 ± 0.1 cm
  Body weight of fetus: 1.2 ± 0.1 g
  Number absorbed: 0
  Number of fetuses: 9 ± 2
  number of stillbirths: 0.17 ± 0.39
ip, 0.19 mg/kg
  Body length of fetus: 2.1 ± 0.2 cm
  Body weight of fetus: 1.0 ± 0.2 g
  Number absorbed: 0.73 ± 1.7
  Number of fetuses: 9 ± 4
  number of stillbirths: 0.13 ± 0.35
ip, 0.38 mg/kg
  Body length of fetus: 2.0 ± 0.3 cm
  Body weight of fetus: 1.1 ± 0.3 g
  Number absorbed: 2.1 ± 2.4
  Number of fetuses: 6 ± 4
  number of stillbirths: 0.8 ± 1.1
ip, 0.39 mg/kg
  Body length of fetus: 1.9 ± 0.1 cm
  Body weight of fetus: 0.95 ± 0.18 g
  Number absorbed: 0.75 ± 1.0
  Number of fetuses: 8 ± 4
  number of stillbirths: 0.9 ± 1.1
